Experimental data as given in patent US20240131155A1, “T CELLS FOR USE IN THERAPY” (Erasmus University Medical Center Rotterdam, priority 2021, published 2024).
Like-named read-outs stand apart in the source and are kept apart here. Peptide text beside a SMILES is read from it.

Tests used:
HLA-A2 = molecular target: T1, HLA-A2 (Homo sapiens, UniProt P04439, D140Y/D185E/D98H/E176V/E277Q/G131W/G231S/I119V/I121R/I166T/I218V/L300P/L318F/N151K/N90K/P208A/P217A/Q86G/Q94H/R138H/R169H/T345S); assay: HLA-A2 stabilization assay using T2 cells; type: binding
T1 construct: The HLA-A2 stabilization assay was performed using T2 cells; endogenous in cells; host or cells: T2 cells (LCLxT lymphoblastoid hybrid cell line 0.1743CEM.T2)

CD8+ T cells = assay: Enrichment of epitope-specific CD8 T cells from healthy donors, epitope-specific IFNg production (ELISA); type: cell-based, human; conditions: positive co-cultures / co-cultures tested
Description: Enrichment of epitope-specific CD8 T cells was performed according to the protocol described by Butler et al., Clin Cancer Res.;13(6):1857-1867 (2007), doi:10.1158/1078-0432, but included the following amendments. CD8+ T lymphocytes were collected from PBMCs by magnetic-activated cell sorting (MACS) according to the CD8 isolation kit (Miltenyi Biotec). CD8+ T cells with >95% purity were subsequently cultured in T cell medium supplemented with IL-2 (36 IU/mL; but no gentamycin) for 1 day, after which expansion cycles started. K562ABC cells (kindly provided by prof. Bruce Levine, University of Pennsylvania, PA) were loaded with 10 μg/ml ROPN1 and/or ROPN1B peptide and incubated for 5 h at RT in serum-free medium, after which cells were washed and fixed with 0,1% paraformaldehyde. After washing, K562ABC cells were suspended at 0.1×10^6/mL and co-cultured with T cells in a 1:20 ratio. IL-2 (36 IU/mL) and IL-15 ([…]) were added at days 1 and 3 days after start of co-culture, and after 6 days, T cells were counted, suspended at 2×10^6/mL and rested for 1 day, after which the next cycle commenced (this schedule continued up to 4 or 5 cycles). Following 4 and 5 cycles, T cells were stained with pMHC multimers (HLA*0201/MLN, Immudex, Copenhagen, Denmark). pMHC-PE were pre-incubated at RT for 10 min followed by incubation with 7AAD, anti-CD3-FITC and anti-CD8-APC for 20 min. Cells were fixed with 1% paraformaldehyde and TCR expression was measured with flow cytometry and analyzed using FlowJoX software. FIG. 4A schematically depicts the procedure to enrich epitope-specific T cells, and obtainthe corresponding TCR genes.
Enriched T cells were tested for ROPN1 and/or ROPN1B epitope-specific IFNY production. To this end, T2 cells (4×10^6/mL) were loaded with peptide (20 ng/mL) for 30 min. T cells (2×10^5) were cultured in a 1:1 ratio with T2 cells in a round bottom 96-wells plate, and the next day supernatant was collected and IFN-γ production was measured with an Enzyme-linked immunosorbent assay (ELISA, Invitrogen) according to manufacturer's protocol (FIG. 4B). T2 cells without peptide were included as a negative control; and staphylococcal enterotoxin B (0.1 μg, Sigma) was used as a positive control.
Enrichment of epitope-specific T cells was performed by co-culturing naïve T cells with CD11c-positive cells that were loaded with peptide. PBMCs were passed through a cell strainer (70 μm) and used for the isolation of naïve T cells and CD11c cells. To isolate CD11c-positive cells (typically dendritic cells, DC), PBMCs were stained for 10 mM at 4° C. with Fc block (10 μL/10^7 PBMCs, BD Pharmingen, Vianen, the Netherlands), after which cells were stained with CD11c-PE antibody (10 μL/10^7 PBMCs, BD Pharmingen) for 30 mM at 4° C., washed, and incubated with PE beads (10 μL/10^7 PBMCs, Miltenyi Biotech, Bergisch Gladbach, Germany) for another […] at 4° C. After washing, cells were dissolved in magnetic-activated cell sorting (MACS) buffer and passed through a MACS LS column (Miltenyi Biotec) to positively select CD11c cells. After selection, CD11c cells were irradiated with 30 Gy, and cultured overnight in a 24-wells plate (1×10^6/mL) in RPMI medium supplemented with 1% human serum (Sanquin), 1% antibiotics, […] L-glutamine, a DC maturation cocktail (a mixture of GM-CSF (10 ng/mL, ImmunoTools, Germany), IL-4 (10 ng/mL, ImmunoTools), LPS (100 ng/mL, Invitrogen, Goteborg, Sweden) and IFNY (10 ng/mL, Preprotech, London, United Kingdom)), as well as peptide (10 pg/mL). Naïve T cells were isolated with use of the Naïve T Cell isolation kit (Miltenyi Biotec) according to the manufacturer's protocol, and suspended in RPMI medium supplemented with 5% human serum (Sanquin), 1% antibiotics, […] L-glutamine and IL-7 (5 ng/mL, BD Pharmingen). The run-through of the naïve T cell selection was frozen down and used for re-stimulation of epitope-specific T cells. […]

[1] = Table 2 (Example 1), EC50 of peptide titration on T2 cells, read-out: Affinity for HLA A2:01
[2] = Table 4 (Examples 1 and 2), EC50 of peptide titration on T2 cells, read-out: Affinity for HLA.A2.01
[3] = Table 2 (Example 1), healthy donor T cells

Row | EC50 (HLA-A2; [1]) [µM] | EC50 (HLA-A2; [2]) [µM] | EC50 (HLA-A2; Example 1, top-ranked epitopes, read-out: EC50 (HLA-A2 binding)) [µM] | Compound | T cell responses observed (IFNg) against epitope (CD8+ T cells; Table 4) | T cell responses observed (IFNg) against epitope (CD8+ T cells; [3])
1 | 11.4 | 10.5 | – | CSCC[C@H](NC(=O)[C@H](CCC(N)=O)NC(=O)[C@H](C)N)C(=O)N[C@@H](Cc1c[nH]c2ccccc12)C(=O)N[C@@H](CCCCN)C(=O)N[C@H](C(=O)N[C@H](C(=O)N[C@@H](CC(N)=O)C(=O)N[C@@H](CC(C)C)C(=O)O)C(C)C)C(C)C (H-AQMWKVVNL-OH; N-terminus and C-terminus assumed) | 2/2 co-cultures | –
2 | – | 21.1 | – | CC[C@H](C)[C@H](NC(=O)[C@H](Cc1ccc(O)cc1)NC(=O)[C@@H](NC(=O)[C@H](Cc1ccc(O)cc1)NC(=O)[C@H](CC(C)C)NC(=O)[C@@H](N)Cc1ccccc1)[C@@H](C)O)C(=O)N[C@@H](C)C(=O)N[C@@H](CCC(=O)O)C(=O)N[C@H](C(=O)O)C(C)C (H-FLYTYIAEV-OH; N-terminus and C-terminus assumed) | 2/2 co-cultures | –
3 | 10.9 | 8.11 | – | CC[C@H](C)[C@H](NC(=O)[C@H](Cc1ccc(O)cc1)NC(=O)[C@@H](NC(=O)[C@H](Cc1ccc(O)cc1)NC(=O)[C@H](CC(C)C)NC(=O)[C@@H](N)Cc1ccccc1)[C@@H](C)O)C(=O)N[C@@H](C)C(=O)N[C@@H](CCCCN)C(=O)N[C@H](C(=O)O)C(C)C (H-FLYTYIAKV-OH; N-terminus and C-terminus assumed) | 1/4 co-cultures | 1/4 co-cultures
4 | 6.56 | 4.82 | 6.6 | CC[C@H](C)[C@H](NC(=O)[C@H](Cc1ccc(O)cc1)NC(=O)[C@H](CC(N)=O)NC(=O)[C@H](CC(C)C)NC(=O)[C@@H](N)CCSC)C(=O)N[C@@H](CCC(=O)O)C(=O)N[C@@H](CCC(N)=O)C(=O)N[C@@H](CCC(=O)O)C(=O)N[C@H](C(=O)O)C(C)C (H-MLNYIEQEV-OH; N-terminus and C-terminus assumed) | 1/3 co-cultures | 1/3 co-cultures
